Test results published in DBAASP.
In brackets after ≈: the same amount, converted by molar mass. Several values for one entry are separate records, joined by “and”; a condition that tells them apart may be missing. Equal values may be shown once. One block for each compound: values may come before it.

Tests used:
Assay in all cases: ≥ marks a high value that may be exact or a test limit, other limits are often not marked, values filed in µg/mL are converted to µM
[1] = tested on: Acinetobacter calcoaceticus
[2] = tested on: Candida albicans ATCC 90028
[3] = tested on: Staphylococcus aureus ATCC 25923
[4] = tested on: Bacillus cereus ATCC 14579
[5] = tested on: Fusarium oxysporum
[6] = tested on: Staphylococcus aureus
[7] = tested on: Pectobacterium carotovorum
[8] = tested on: Escherichia coli
[9] = tested on: Rhizoctonia solani
[10] = tested on: Candida tropicalis
[11] = tested on: Cryptococcus neoformans ATCC 28957
[12] = tested on: Streptococcus uberis
[13] = tested on: Pseudomonas syringae pv. tabaci
[14] = tested on: Streptococcus dysgalactiae
[15] = tested on: Staphylococcus aureus ATCC 29313
[16] = tested on: Candida albicans
[17] = tested on: Ramulariopsis gossypii
[18] = tested on: Trichoderma asperellum
[19] = tested on: Candida albicans ATCC 1023
[20] = tested on: Bacillus subtilis ATCC 23857
[21] = tested on: Xanthomonas campestris pv. citri
[22] = tested on: Fusarium solani
[23] = tested on: Xanthomonas axonopodis pv. glycines ISBF 327
[24] = tested on: Escherichia coli NCTC 10418
[25] = tested on: Klebsiella aerogenes
[26] = tested on: Proteus mirabilis
[27] = tested on: Providencia stuartii
[28] = tested on: Acinetobacter sp.
[29] = tested on: Escherichia coli NCTC 8007
[30] = tested on: Klebsiella sp.
[31] = tested on: Staphylococcus aureus NCTC 10571
[32] = tested on: Spiroplasma melliferum BC3
[33] = tested on: Mycoplasma mycoides ssp. mycoides SC KH3J
[34] = tested on: Spiroplasma citri R8A2
[35] = tested on: Acholeplasma laidlawii A-EF22
[36] = tested on: Spiroplasma floricola BNR 1
[37] = tested on: Escherichia coli ATCC 25922
[38] = tested on: Staphylococcus aureus 6A
[39] = tested on: Staphylococcus aureus ATCC 2592
[40] = tested on: Pseudomonas aeruginosa 3A
[41] = tested on: Escherichia coli 23A
[42] = tested on: Pseudomonas aeruginosa 7A
[43] = tested on: Escherichia coli 27A
[44] = tested on: Candida albicans ATCC 2002
[45] = tested on: Staphylococcus aureus 15A
[46] = tested on: Escherichia coli K-12
[47] = tested on: Pseudomonas aeruginosa ATCC 27853
[48] = tested on: Cryptococcus neoformans var. grubii H99
[49] = tested on: Klebsiella pneumoniae ATCC 700603
[50] = tested on: Acinetobacter baumannii ATCC 19606
[51] = tested on: Staphylococcus aureus ATCC 43300
[52] = tested on: Staphylococcus aureus JE2

MIC [1]: 25.7 µM (≈ 71.7 µg/mL)
MIC [2]: 4 µM (≈ 11.2 µg/mL)
MIC [3]: 3.2 µM and 8 µM
MIC [4]: 16 µM (≈ 44.7 µg/mL)
MIC [5]: 16 µM (≈ 44.7 µg/mL)
MIC [6]: 12.8 µM and 5.7 µM
MIC [7]: 0.5 µM (≈ 1.4 µg/mL)
MIC [8]: 6.42 µM (≈ 17.9 µg/mL)
MIC [9]: ≥ 64 µM
MIC [10]: 0.37 µM (≈ 1.03 µg/mL)
MIC [11]: 8 µM (≈ 22.4 µg/mL)
MIC [12]: 5.7 µM (≈ 15.9 µg/mL)
MIC [13]: 1 µM (≈ 2.79 µg/mL)
MIC [14]: 5.7 µM (≈ 15.9 µg/mL)
MIC [16]: 5.7 µM (≈ 15.9 µg/mL)
MIC [17]: 8 µM (≈ 22.4 µg/mL)
MIC [18]: 8 µM (≈ 22.4 µg/mL)
MIC [19]: 5.7 µM (≈ 15.9 µg/mL)
MIC [20]: 1 µM (≈ 2.79 µg/mL)
MIC [21]: 0.5 µM (≈ 1.4 µg/mL)
MIC [22]: 16 µM (≈ 44.7 µg/mL)
MIC [23]: 1 µM (≈ 2.79 µg/mL)
Structure (SMILES): CC[C@H](C)[C@H](NC(=O)[C@H](C)NC(=O)[C@H](C)NC(=O)[C@H](CCC(=O)O)NC(=O)[C@H](CCCCN)NC(=O)CNC(=O)[C@H](CCCCN)NC(=O)[C@H](CCC(N)=O)NC(=O)[C@H](CCCCN)NC(=O)[C@@H](NC(=O)[C@@H](NC(=O)[C@H](CO)NC(=O)[C@H](Cc1c[nH]c2ccccc12)NC(=O)[C@H](CC(C)C)NC(=O)CN)[C@@H](C)O)[C@@H](C)CC)C(=O)N[C@@H](C)C(=O)N[C@@H](C)C(=O)N[C@@H](C)C(=O)N[C@@H](CCCCN)C(=O)N[C@@H](C)C(=O)N[C@@H](C)C(=O)NCC(=O)N[C@@H](CCC(N)=O)C(=O)N[C@@H](C)C(=O)N[C@@H](C)C(=O)N[C@@H](CC(C)C)C(=O)NCC(=O)N[C@@H](C)C(=O)N[C@@H](CC(C)C)C(N)=O [GLWSTIKQKGKEAAIAAAKAAGQAALGAL]
MIC [15]: 11 µM (≈ 30.7 µg/mL)

MIC [24]: ≥ 500 µM
MIC [25]: ≥ 1000 µM
MIC [26]: ≥ 1000 µM
MIC [27]: ≥ 1000 µM
MIC [28]: 2 µM (≈ 3.97 µg/mL)
MIC [29]: ≥ 500 µM
MIC [30]: ≥ 1000 µM
MIC [31]: ≥ 500 µM
Structure (SMILES): CSCC[C@H](NC(=O)[C@H](CC(N)=O)NC(=O)[C@H](CCCN=C(N)N)NC(=O)[C@H](CCC(N)=O)NC(=O)[C@H](Cc1c[nH]c2ccccc12)NC(=O)[C@H](CCC(N)=O)NC(=O)[C@@H](N)Cc1ccccc1)C(=O)N[C@@H](CCCN=C(N)N)C(=O)N[C@@H](CCCCN)C(=O)N[C@H](C(=O)N[C@@H](CCCN=C(N)N)C(=O)NCC(=O)N1CCC[C@H]1C(=O)N1CCC[C@H]1C(=O)N[C@H](C(=O)N[C@@H](CO)C(=O)O)C(C)C)C(C)C [FQWQRNMRKVRGPPVS]

MIC [46]: 19.6 µM (≈ 32 µg/mL)
MIC [37]: > 19.6 µM
MIC [2]: 19.6 µM (≈ 32 µg/mL)
MIC [47]: > 19.6 µM
MIC [48]: 9.82 µM (≈ 16 µg/mL)
MIC [49]: > 19.6 µM
MIC [50]: > 19.6 µM
MIC [51]: 19.6 µM (≈ 32 µg/mL)
MIC [52]: ≥ 39.3 µM
Structure (SMILES): CC[C@H](C)[C@H](NC(=O)[C@@H](NC(=O)[C@H](CO)NC(=O)[C@H](C)NC(=O)[C@@H](NC(=O)[C@H](CCCCN)NC(=O)[C@H](CCCCN)NC(=O)[C@@H](NC(=O)[C@@H](NC(=O)[C@H](CCC(=O)O)NC(=O)[C@H](Cc1ccccc1)NC(=O)[C@H](CC(C)C)NC(=O)CN)C(C)C)[C@@H](C)CC)C(C)C)C(C)C)C(=O)NCC(=O)NCC(=O)N[C@@H](CC(C)C)C(=O)O [GLFEVIKKVASVIGGL]

Continued, compound first:

Structure (SMILES): CC(C)C[C@H](NC(=O)[C@H](CCCCN)NC(=O)[C@H](CC(C)C)NC(=O)[C@H](CC(C)C)NC(=O)[C@H](CC(C)C)NC(=O)[C@H](CCCCN)NC(=O)[C@H](CC(C)C)NC(=O)[C@H](CC(C)C)NC(=O)[C@H](CC(C)C)NC(=O)[C@H](CCCCN)NC(=O)[C@H](CC(C)C)NC(=O)[C@H](CC(C)C)NC(=O)[C@@H](N)CCCCN)C(=O)N[C@@H](Cc1c[nH]c2ccccc12)C(=O)N[C@@H](CCCCN)C(=O)O [KLLKLLLKLLLKLWK]
MIC [32]: 6.25 µM (≈ 11.6 µg/mL)
MIC [33]: 6.25 µM (≈ 11.6 µg/mL)
MIC [34]: 6.25 µM (≈ 11.6 µg/mL)
MIC [35]: 1.56 µM (≈ 2.91 µg/mL)
MIC [36]: 6.25 µM (≈ 11.6 µg/mL)

Structure (SMILES): CC[C@H](C)[C@H](NC(=O)[C@@H](NC(=O)[C@@H]1CCCN1C(=O)[C@H](CCSC)NC(=O)[C@@H](N)Cc1ccccc1)[C@@H](C)CC)C(=O)NCC(=O)N[C@@H](CCCN=C(N)N)C(=O)N[C@@H](CC(C)C)C(=O)N[C@@H](CCSC)C(=O)N[C@@H](CO)C(=O)NCC(=O)N[C@@H](CO)C(=O)N[C@@H](CC(C)C)C(=O)O [FMPIIGRLMSGSL]
MIC [37]: 5.28 µM (≈ 7.5 µg/mL)
MIC [38]: 2.64 µM (≈ 3.75 µg/mL)
MIC [39]: 1.34 µM (≈ 1.9 µg/mL)
MIC [40]: 2.64 µM (≈ 3.75 µg/mL)
MIC [41]: 5.28 µM (≈ 7.5 µg/mL)
MIC [42]: 2.64 µM (≈ 3.75 µg/mL)
MIC [43]: 10.6 µM (≈ 15 µg/mL)
MIC [44]: 21.1 µM (≈ 30 µg/mL)
MIC [45]: 0.703 µM (≈ 1 µg/mL)
